# In US20210236541A1, “IODOPHOR COMPOSITION WITH IMPROVED STABILITY IN THE PRESENCE OF ORGANIC MATERIAL” (priority 2014, published 2021):
# How the values were obtained:
# Type in all cases: cell-based
# E. coli ATCC 25922 [1] = test: Nebulisation simulation, kill efficiency on inoculated bandage; conditions: for performance of the novel iodophor relative to the labelled antibiotic: nebulised, 15 minutes, Levofloxacin and Polymyxin B at all concentrations, Gentamycin 0.1 mg and 1 mg
# P. aeruginosa = test: as above; conditions: 1 mL nebulised, 15 minutes exposure, FIG. 6
# bacterial cells = tested on: bacterial cells
# E. coli ATCC 25922 [2] = test: MIC micro-broth dilution
compound,measurement,setting,value
Gentamycin,performance of the novel iodophor relative to the labelled antibiotic,E. coli ATCC 25922 [1],superior
Polymyxin B,performance of the novel iodophor relative to the labelled antibiotic,E. coli ATCC 25922 [1],equivalent performance
OO [Hydrogen peroxide],killing efficiency,"E. coli ATCC 25922 [1]; 1 mL nebulised, 15 minutes exposure, FIG. 5",limited killing efficiency
same,killing efficiency,P. aeruginosa,limited killing efficiency
same,recovery of viable bacterial cells,bacterial cells,recovery of viable cells
polyvinylpyrrolidone iodine [PVP-I],MIC,"E. coli ATCC 25922 [2]; in lysogeny broth (LB), text of b30",500 µg/mL
same,minimum inhibitory concentration (MIC),E. coli ATCC 25922 [2]; in water,< 1 µg/mL
same,MBC value,E. coli ATCC 25922 [2]; organic rich growth medium (such as lysogeny broth),> 500 µg/mL
